Results taken from PubChem BioAssay (NCI).
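In this assay, cells in 96-well plates receive the compound at five concentrations for 48 hours. Endpoints are linearly interpolated between the surrounding concentrations. GI50 is the concentration that inhibits growth by half. The concentration for full growth arrest is given as TGI.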 *1 amine or outer side, *2 acyl side, *3 side chain or, on linkers, in order; H or OH if unused. Where a SMILES comes first, the peptide text is derived from it. [ ]: non-standard residue; d: D form. ξ: configuration not given here. X21 = CC[C@@H](C)C(N[*:1])C(=O)[*:2]; ξR = N=C(N)NCCCC(N)C(=O)O; ξI = CCC(C)C(N)C(=O)O; ξL = CC(C)CC(N)C(=O)O; ξK = NCCCCC(N)C(=O)O; ξV = CC(C)C(N)C(=O)O; ξA = CC(N)C(=O)O

Legend:
Assay in all cases: inhibition of tumour cell growth, NCI panel, 48 h
ACHN renal = test system: ACHN renal
HCT-116 colon = test system: HCT-116 colon
M14 melanoma = test system: M14 melanoma
NCI-H226 lung = test system: NCI-H226 lung
OVCAR-3 ovarian = test system: OVCAR-3 ovarian
SF-268 CNS = test system: SF-268 CNS
SW-620 colon = test system: SW-620 colon
UACC-257 melanoma = test system: UACC-257 melanoma
UO-31 renal = test system: UO-31 renal
SK-MEL-2 melanoma = test system: SK-MEL-2 melanoma

Structure (SMILES) | GI50 (ACHN renal) | TGI (ACHN renal) | GI50 (HCT-116 colon) | TGI (HCT-116 colon) | GI50 (M14 melanoma) | TGI (M14 melanoma) | GI50 (NCI-H226 lung) | TGI (NCI-H226 lung) | GI50 (OVCAR-3 ovarian) | TGI (OVCAR-3 ovarian) | GI50 (SF-268 CNS) | TGI (SF-268 CNS) | GI50 (SW-620 colon) | TGI (SW-620 colon) | GI50 (UACC-257 melanoma) | TGI (UACC-257 melanoma) | GI50 (UO-31 renal) | TGI (UO-31 renal) | GI50 (SK-MEL-2 melanoma) | TGI (SK-MEL-2 melanoma)
COc1ccc(-c2csc(NC(=O)c3cc(O)c(O)c(O)c3)n2)cc1 | 3.76 µM | > 33.3 µM | 6.69 µM | > 33.3 µM | 10.4 µM | > 33.3 µM | 9.59 µM | > 33.3 µM | 12.2 µM | > 33.3 µM | 6.31 µM | > 33.3 µM | 5.69 µM | > 33.3 µM | 11.9 µM | > 33.3 µM | 1650 nM | > 33.3 µM | – | –
CCOC(=O)Nc1nc2c(C)cccc2s1 | 74.6 µM | > 100 µM | 45.3 µM | > 100 µM | 53 µM | > 100 µM | > 100 µM | > 100 µM | 41.8 µM | > 100 µM | 55.3 µM | > 100 µM | 64.7 µM | > 100 µM | 39.8 µM | > 100 µM | 33500 nM | > 100 µM | 85.8 µM | > 100 µM
NNC(=O)/C(NC(=O)c1ccccc1)=C(\N)c1ccc(Cl)cc1 | – | > 100 µM | – | > 100 µM | – | > 100 µM | – | > 100 µM | – | > 100 µM | – | > 100 µM | – | > 100 µM | – | > 100 µM | – | > 100 µM | – | > 100 µM
CCC(C)C1NC(=O)C(CC(C)C)NC(=O)C(C)NC(=O)C(C(C)C)NC(=O)C(CCCCN)NC(=O)C(CC(C)C)NC(=O)C(C(C)C)NC(=O)[C@H](C)NC(=O)C(C(C)CC)NC(=O)C(CCCN=C(N)N)NC(=O)C(CCCCN)NC(=O)C(CCCN=C(N)N)NC(=O)C(CCCCN)NC(=O)C([C@H](C)CC)NC(=O)C(CCCCN)NC1=O (some centres undefined) (cyclo(A[ξV][ξL][ξK][ξV][ξA][ξL][ξI][ξK][X21][ξK][ξR][ξK][ξR][ξI])) | 1.79 µM | 4.5 µM | 1.35 µM | 2.84 µM | 1.5 µM | 3.13 µM | – | – | 1.2 µM | 2.87 µM | 1.76 µM | 5.12 µM | 1.56 µM | 3.39 µM | 0.476 µM | 2.58 µM | 1370 nM | 2.67 µM | 1.72 µM | 4.09 µM
O=c1c2ccccc2nc(-c2cccc(Cl)c2)n1NCC1(O)OCC(O)C(O)C1O (centres undefined) | – | > 100 µM | – | > 100 µM | – | > 100 µM | – | > 100 µM | – | > 100 µM | – | > 100 µM | – | > 100 µM | – | > 100 µM | – | > 100 µM | – | > 100 µM
COc1ccc(/C=C/NC=O)cc1 | – | > 100 µM | – | > 100 µM | – | > 100 µM | – | > 100 µM | – | > 100 µM | – | > 100 µM | – | > 100 µM | – | > 100 µM | – | > 100 µM | – | > 100 µM
NC(CC1=CCC=CC1)C(=O)O (centres undefined) | – | > 100 µM | – | > 100 µM | – | > 100 µM | – | – | – | > 100 µM | – | > 100 µM | – | > 100 µM | – | > 100 µM | – | > 100 µM | – | > 100 µM
COc1cc2c(c(OC)c1OC)-c1ccc(OC)c(=O)cc1[C@@H](N(C)C=O)CC2 | – | > 100 µM | – | 6.83 µM | – | > 65.6 µM | – | – | – | 0.047 µM | – | > 100 µM | – | > 100 µM | – | > 100 µM | – | > 100 µM | – | 0.0487 µM
